pIC50: −log10 of the molar value. Active and inactive are the calls of the source. No cut-off for these calls is given here.
Legend:
[1] = tested on: MOLM-13; experiment: Induction of apoptosis in human MOLM-13 cells assessed as early apoptotic cells at 0.1 uM incubated for 48 hrs by Annexin V-FITC staining based flow cytometry analysis (reference value: 4.07 %); assay type: functional
[2] = tested on: MOLM-13; experiment: Induction of apoptosis in human MOLM-13 cells assessed as viable cells at 0.1 uM incubated for 48 hrs in presence of gilteritinib by Annexin V-FITC staining based flow cytometry analysis (reference value: 94.5 %); assay type: functional
[3] = Cytotoxicity against HEK293T cells incubated for 48 hrs; assay type: toxicity, cell-based, HEK-293T; conditions: human
[4] = tested on: MOLM-13; experiment: Induction of cell cycle arrest in human MOLM-13 cells assessed as accumulation of cells at S-phase at 0.05 uM measured for 48 hrs in presence of gilteritinib by PI/RNase staining based flow cytometric analysis (reference value: 42.95%); assay type: functional
[5] = tested on: MOLM-13; experiment: Induction of apoptosis in human MOLM-13 cells assessed as late apoptotic cells at 0.1 uM incubated for 48 hrs in presence of gilteritinib by Annexin V-FITC staining based flow cytometry analysis (reference value: 1.40 %); assay type: functional
[6] = tested on: MOLM-13; experiment: Induction of apoptosis in human MOLM-13 cells assessed as viable cells at 0.1 uM incubated for 48 hrs by Annexin V-FITC staining based flow cytometry analysis (reference value: 94.5 %); assay type: functional
[7] = tested on: MOLM-13; experiment: Induction of apoptosis in human MOLM-13 cells assessed as necrotic cells at 0.1 uM incubated for 48 hrs in presence of gilteritinib by Annexin V-FITC staining based flow cytometry analysis (reference value: 0.013 %); assay type: functional
[8] = tested on: MOLM-13; experiment: Induction of apoptosis in human MOLM-13 cells assessed as necrotic at 0.1 uM incubated for 48 hrs by Annexin V-FITC staining based flow cytometry analysis (reference value: 0.013 %); assay type: functional
[9] = tested on: MOLM-13; experiment: Induction of cell cycle arrest in human MOLM-13 cells assessed as accumulation of cells at G0/G1 phase at 0.05 uM measured for 48 hrs in presence of gilteritinib by PI/RNase staining based flow cytometric analysis (reference value: 46.24 %); assay type: functional
[10] = Toxicity in BALB/c mouse xenografted with human MOLM-13 cells assessed as lung damage at 30 mg/kg, IG qd administered 5 days a week and measured on day 9 in presence of gilteritinib by H and E staining based analysis; assay type: organism-based; conditions: in vivo, po, 216 h, time 9 day
[11] = tested on: MOLM-13; experiment: Induction of cell cycle arrest in human MOLM-13 cells assessed as accumulation of cells at G2M phase at 0.05 uM measured for 48 hrs by PI/RNase staining based flow cytometric analysis (reference value: 10.81%); assay type: functional
[12] = tested on: MOLM-13; experiment: Induction of cell cycle arrest in human MOLM-13 cells assessed as accumulation of cells at G2M phase at 0.05 uM measured for 48 hrs in presence of gilteritinib by PI/RNase staining based flow cytometric analysis (reference value: 10.81%); assay type: functional
[13] = Toxicity in NOD/SCID mouse xenografted with human MOLM-13 cells assessed as increase in survival rate at 60 mg/kg, IG administered 5 days per week in presence of gilteritinib by Kaplan Mayer survival analysis; assay type: organism-based; conditions: in vivo, po, 120 h, time 5 day
[14] = tested on: MOLM-13; experiment: Induction of apoptosis in human MOLM-13 cells assessed as early apoptotic cells at 0.1 uM incubated for 48 hrs in presence of gilteritinib by Annexin V-FITC staining based flow cytometry analysis (reference value: 4.07 %); assay type: functional
[15] = tested on: MOLM-13; experiment: Induction of apoptosis in human MOLM-13 cells assessed as late apoptotic cells at 0.1 uM incubated for 48 hrs by Annexin V-FITC staining based flow cytometry analysis (reference value: 1.40 %); assay type: functional
[16] = tested on: MOLM-13; experiment: Induction of cell cycle arrest in human MOLM-13 cells assessed as accumulation of cells at S-phase at 0.05 uM measured for 48 hrs by PI/RNase staining based flow cytometric analysis (reference value: 42.95%); assay type: functional
[17] = Toxicity in BALB/c mouse xenografted with human MOLM-13 cells assessed as body weight loss at 30 mg/kg, IG qd administered 5 days a week and measured on day 9 in presence of gilteritinib; assay type: organism-based; conditions: in vivo, po, 216 h, time 9 day
[18] = tested on: MOLM-13; experiment: Induction of cell cycle arrest in human MOLM-13 cells assessed as accumulation of cells at G0/G1 phase at 0.05 uM measured for 48 hrs by PI/RNase staining based flow cytometric analysis (reference value: 46.24 %); assay type: functional
[19] = tested on: THP-1; experiment: Antiproliferative activity against human THP-1 cells incubated for 48 hrs; conditions: THP-1, 48 h
[20] = Toxicity in BALB/c mouse xenografted with human MOLM-13 cells assessed as body weight loss at 10 mg/kg, IG qd administered 5 days a week and measured on day 9; assay type: organism-based; conditions: in vivo, po, 216 h, time 9 day
[21] = tested on: MOLM-13; experiment: Induction of apoptosis in human MOLM-13 cells assessed as caspase-3 activation; assay type: functional, cell-based; conditions: dose 0.1 µM
[22] = molecular target: Receptor-type tyrosine-protein kinase FLT3 (Homo sapiens) (UniProt P36888); experiment: Inhibition of FLT3 phosphorylation in human MOLM-13 cells at 0.001 to 0.1 microM by Western blot analysis; assay type: cell-based; conditions: dose 0.001-0.1 µM
[23] = tested on: MOLM-13; experiment: Antitumor activity against human MOLM-13 cells xenografted BALB/c mouse assessed as reduction in tumor volume at 10 mg/kg, IG qd administered 5 days a week and measured on day 9; assay type: functional, organism-based; conditions: time 9.0 day
[24] = tested on: MOLM-13; experiment: Antitumor activity against human MOLM-13 cells xenografted BALB/c mouse assessed as tumor growth inhibition at 10 mg/kg, IG qd administered 5 days a week and measured on day 9; assay type: functional; conditions: MOLM-13, po, 216 h, time 9 day, read-out: TGI
[25] = tested on: MOLM-13; experiment: Inhibition of ERK1/2 phosphorylation in human MOLM-13 cells at 0.1 microM by Western blot analysis; assay type: cell-based
[26] = Metabolic stability in mouse liver microsome incubated upto 120 mins in presence of NADPH by HPLC analysis; assay type: ADME; conditions: microsomes, 2 h
[27] = Toxicity in BALB/c mouse xenografted with human MOLM-13 cells assessed as kidney damage at 10 mg/kg, IG qd administered 5 days a week and measured on day 9 by H and E staining based analysis; assay type: organism-based; conditions: in vivo, po, 216 h, time 9 day
[28] = tested on: KG-1; experiment: Antiproliferative activity against human KG-1 cells incubated for 48 hrs; conditions: KG-1, 48 h
[29] = tested on: Mitochondrial membrane; experiment: Induction of mitochondrial membrane potential depolarization in human MOLM-13 cells; assay type: cell membranes; conditions: dose 0.1 µM
[30] = Stability in mouse plasma incubated upto 24 hrs by HPLC analysis; assay type: ADME, cell-free
[31] = tested on: K562; experiment: Antiproliferative activity against human K562 cells incubated for 48 hrs; conditions: K562, 48 h
[32] = tested on: MOLM-13; experiment: Inhibition of ERK1/2 phosphorylation in human MOLM-13 cells at 0.01 to 0.1 microM by Western blot analysis; assay type: cell-based; conditions: dose 0.01-0.1 µM
[33] = molecular target: T1, Receptor-type tyrosine-protein kinase FLT3 (Homo sapiens, UniProt P36888); experiment: Inhibition of FLT3 (unknown origin) incubated for 40 mins in presence of ATP by kinase-glo plus luminescence assay
T1 sequence (P36888 whole entry): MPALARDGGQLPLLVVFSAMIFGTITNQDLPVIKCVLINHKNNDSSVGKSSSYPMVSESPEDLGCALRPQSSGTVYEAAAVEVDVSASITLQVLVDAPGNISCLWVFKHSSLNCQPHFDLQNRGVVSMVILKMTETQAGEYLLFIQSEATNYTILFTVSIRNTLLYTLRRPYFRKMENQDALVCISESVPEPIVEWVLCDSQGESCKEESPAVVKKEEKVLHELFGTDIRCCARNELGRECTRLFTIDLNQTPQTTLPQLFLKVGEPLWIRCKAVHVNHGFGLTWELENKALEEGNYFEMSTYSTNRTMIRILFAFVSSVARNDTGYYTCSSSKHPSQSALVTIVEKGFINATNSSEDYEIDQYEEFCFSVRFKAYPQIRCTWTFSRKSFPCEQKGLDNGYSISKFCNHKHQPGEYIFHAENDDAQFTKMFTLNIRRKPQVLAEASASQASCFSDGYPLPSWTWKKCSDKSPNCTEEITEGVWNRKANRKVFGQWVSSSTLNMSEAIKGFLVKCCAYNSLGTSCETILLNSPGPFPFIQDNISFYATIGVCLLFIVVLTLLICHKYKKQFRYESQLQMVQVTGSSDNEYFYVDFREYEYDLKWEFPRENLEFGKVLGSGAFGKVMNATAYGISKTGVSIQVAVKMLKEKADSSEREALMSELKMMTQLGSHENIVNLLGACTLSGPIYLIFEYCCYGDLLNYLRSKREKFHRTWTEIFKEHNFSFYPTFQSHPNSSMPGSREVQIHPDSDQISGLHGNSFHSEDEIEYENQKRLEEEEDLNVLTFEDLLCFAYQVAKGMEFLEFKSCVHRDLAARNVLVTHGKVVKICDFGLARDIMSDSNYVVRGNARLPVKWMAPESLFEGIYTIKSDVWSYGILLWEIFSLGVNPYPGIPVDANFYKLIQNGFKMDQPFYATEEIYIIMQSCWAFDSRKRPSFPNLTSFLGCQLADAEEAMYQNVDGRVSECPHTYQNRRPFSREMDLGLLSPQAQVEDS

[34] = tested on: MOLM-13; experiment: Antiproliferative activity against human MOLM-13 cells incubated for 48 hrs; conditions: MOLM-13, 48 h
[35] = tested on: MOLM-13; experiment: Inhibition of STAT5 phosphorylation in human MOLM-13 cells at 0.01 to 0.1 microM by Western blot analysis; assay type: cell-based; conditions: dose 0.01-0.1 µM
[36] = Toxicity in BALB/c mouse xenografted with human MOLM-13 cells assessed as lung damage at 10 mg/kg, IG qd administered 5 days a week and measured on day 9 by H and E staining based analysis; assay type: organism-based; conditions: in vivo, po, 216 h, time 9 day

**Q.** What does the source list for `O=C(CCCCCCC(=O)Nc1ccccc1)NO` [VORINOSTAT]?
**A.** Activity [1]: 14.8%; Activity [2]: 46.8%; IC50 at 48 h [3]: 2210 nM; Activity [4]: 28.26%; Activity [5]: 17.4%; Activity [6]: 83%; Activity [7]: 0.88%; Activity [8]: 0.18%; Activity [9]: 64.51%; Activity [10]: Non-Toxic; Activity [11]: 7.58%; Activity [12]: 7.24%; Activity [13]: Non-Toxic; Activity [14]: 35%; Activity [15]: 2.01%; Activity [16]: 43.26%; Activity [17]: Non-Toxic; Activity [18]: 49.16%

**Q.** Which results are given for `CCc1nc(C(N)=O)c(Nc2ccc(N3CCN(CCCCCCCC(=O)NO)CC3)c(OC)c2)nc1NC1CCOCC1`?
**A.** pIC50 [19]: 6.19; Activity [20]: Non-Toxic; Activity [1]: 43.5%; IC50 at 48 h [3]: 3050 nM; Activity [21]: Dose-Dependent Effect; inhibition [22]: Active; viability at 0.1 µM ([6]; Homo sapiens, MOLM-13, read-out: Activity): 39.4%; Activity [23]: Active; Activity [8]: 0.54%; inhibition in vivo at 10 mg/kg [24]: 65.3%; inhibition [25]: Active; Stability [26]: Stable; Activity [27]: Non-Toxic; pIC50 [28]: 6.18; Activity [29]: Dose-Dependent Effect; Stability [30]: Stable; pIC50 [31]: 6.31; inhibition [32]: Active; pIC50 [33]: 9.22; Activity [11]: 4.12%; pIC50 [34]: 8.10; Activity [15]: 16.6%; Activity [16]: 20.04%; inhibition [35]: Active; Activity [18]: 75.85%; Activity [36]: Non-Toxic

From ChEMBL document CHEMBL6127050, “Simultaneous inhibition of FLT3 and HDAC by novel 6-ethylpyrazine-2-Carboxamide derivatives provides therapeutic advantages in acute myelocytic leukemia” (Eur J Med Chem, 2024)
